According to US5698564A, “Diphenyl disulfide compounds” (Nisshin Flour Milling Co., Ltd., priority 1994, dated 1997):

How the values were obtained:
[1] = tested on: production of IL-1β (THP-1 cells); assay: inhibition of the production of IL-1β in THP-1 cells stimulated with PMA and polyinosic acid (enzyme immunoassay); assay type: cell-based; settings: Homo sapiens, PMA 2 μg/ml and polyinosic acid, 24 hours, read-out: IC50 (concentration to inhibit 50% the IL-1β production)
Procedure: Compounds 1-3, the present diphenyl disulfide compounds obtained in Examples 1 and 2, were evaluated for the activity to inhibit the production of IL-1β, in accordance with the following method.
(§1) The THP-1 cells derived from human peripheral blood (ATCC TIB202) were suspended in RPMI 1640 medium (available from Bio-Whittaker Co., Ltd.) containing 10% (v/v) of fetal bovine serum, 2 mM of glutamine, 50 μM of 2-mercaptoethanol, 60 μg/ml of penicillin and 100 μg/ml of streptomycin.
The suspension of the THP-1 cell was subcultured at 37° C. under the atmosphere of […] and 5% carbon dioxide. A portion of the subcultured suspension was centrifuged at 1200 rpm at room temperature for 3 minutes to recover the subcultured THP-1 cells.
(§2) The resulting THP-1 cells were resuspended in RPMI 1640 medium containing 2% (v/v) of fetal bovine serum, 2 mM of glutamine, 50 μM of 2-mercaptoethanol, 60 μg/ml of penicillin and 100 μg/ml of streptomycin so as to provide a final THP-1 cell concentration of 3×10^6 cells/ml.
The resuspension of the cell was dispensed in 0.5 ml portions to wells of a 24-well plate for cell culture. Then, each solution of the present Compounds 1-3 dissolved in DMSO at the respective specified concentrations was added in 2.5 μl portions to each well. The plate was incubated at 37° C. under the atmosphere of 95% […] and 5% carbon dioxide for one hour. Then, 12-o-tetradecanoylphorbol-13-acetate (PMA) and polyinosic acid were added to each well so as to provide final concentrations of 2 μg/ml and […] respectively. The plate was incubated at 37° C. under the atmosphere of 95% […] and 5% carbon dioxide for 24 hours. After incubation, a supernatant was recovered from each well by means of Pipetteman available from Gilson Co., Ltd. Then, an amount of the IL-1β in the supernatant was assayed by means of the enzyme immunoassay kit available from Cayman Chemical Co., Ltd. […]

[2] = tested on: release of TNFα (THP-1 cells); assay: inhibition of the release of TNFα in THP-1 cells stimulated with PMA and polyinosic acid (ELISA); assay type: cell-based; settings: Homo sapiens, PMA 2 μg/ml and polyinosic acid 200 μg/ml, 24 hours, read-out: IC50 (concentration to inhibit 50% the TNFα release)
Procedure: Compound 1, the present diphenyl disulfide compound obtained in Example 1, was evaluated for the activity to inhibit the release of TNFα, in accordance with the following method.
as §1
The suspension of THP-1 cell was subcultured at 37° C. under the atmosphere of 95% […] and 5% carbon dioxide. A portion of the subcultured suspension was centrifuged at 1200 rpm at room temperature for 3 minutes to recover the subcultured THP-1 cells.
as §2
The resuspension of the cell was dispensed in 0.5 ml portions to wells of a 24-well plate for cell culture, and incubated at 37° C. for one hour. Each solution of the present Compound 1 dissolved in DMSO at the respective specified concentrations was added in 2.5 μl portions to each well. The plate was incubated at 37° C. under the atmosphere of 95% […] and 5% carbon dioxide for one hour. […]

Row | IC50 [1] [µM] | IC50 [2] [µM] | Compound
1 | 3.8 | 19 | Nc1ccccc1SSc1ccccc1Nc1ncccn1 [Compound 1]
2 | 34 | – | c1cnc(Nc2ccccc2SSc2ccccc2Nc2ncccn2)nc1 [Compound 2]

Row | Compound | IC50 [1] [µM] | IC50 [2] [µM]
3 | O=[N+]([O-])c1ccc(SSc2ccccc2-c2nc3ccccc3[nH]2)c([N+](=O)[O-])c1 [Compound 3] | 34 | –
